#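 Where inhibition never reached the appropriate level, the endpoint shown equals the highest concentration tested. Otherwise, values were interpolated linearly from a five-concentration, 48-hour dose response in 96-well plates. Abbreviation: GI50, concentration required for 50% inhibition of growth.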 Active and inactive are the calls of the source. Rule as the data show it: active = GI50 up to about 1.1 µM and inactive = higher.
# Experiments:
# Test in all cases: NCI-60 cell line screen, 48 h
# 786-0 = tested on: 786-0
# A498 = tested on: A498
# A549 = tested on: A549
# ACHN = tested on: ACHN
# BT-549 = tested on: BT-549
# CAKI-1 = tested on: CAKI-1
# CCRF-CEM = tested on: CCRF-CEM
# COLO 205 = tested on: COLO 205
# DU-145 = tested on: DU-145
# EKVX = tested on: EKVX
# HCC 2998 = tested on: HCC 2998
# HCT-116 = tested on: HCT-116
# HCT-15 = tested on: HCT-15
# HOP-62 = tested on: HOP-62
# HOP-92 = tested on: HOP-92
# HT-29 = tested on: HT-29
# IGROV-1 = tested on: IGROV-1
# K562 = tested on: K562
# KM12 = tested on: KM12
# LOX IMVI = tested on: LOX IMVI
# M14 = tested on: M14
# MCF7 = tested on: MCF7
# MDA-MB-231 = tested on: MDA-MB-231
# MDA-MB-435 = tested on: MDA-MB-435
# MOLT-4 = tested on: MOLT-4
# Malme-3M = tested on: Malme-3M
# NCI-H226 = tested on: NCI-H226
# NCI-H23 = tested on: NCI-H23
# NCI-H460 = tested on: NCI-H460
# NCI-H522 = tested on: NCI-H522
# NCI/ADR-RES = tested on: NCI/ADR-RES
# OVCAR-3 = tested on: OVCAR-3
# OVCAR-4 = tested on: OVCAR-4
# OVCAR-5 = tested on: OVCAR-5
# OVCAR-8 = tested on: OVCAR-8
# PC-3 = tested on: PC-3
# RPMI-8226 = tested on: RPMI-8226
# RXF 393 = tested on: RXF 393
# SF-268 = tested on: SF-268
# SF-295 = tested on: SF-295
# SF-539 = tested on: SF-539
# SK-MEL-28 = tested on: SK-MEL-28
# SK-MEL-2 = tested on: SK-MEL-2
# SK-MEL-5 = tested on: SK-MEL-5
# SK-OV-3 = tested on: SK-OV-3
# SN12C = tested on: SN12C
# SNB-19 = tested on: SNB-19
# SNB-75 = tested on: SNB-75
# SR = tested on: SR
# SW-620 = tested on: SW-620
# TK-10 = tested on: TK-10
# U-251 = tested on: U-251
# UACC-257 = tested on: UACC-257
# UACC-62 = tested on: UACC-62
# UO-31 = tested on: UO-31
# HL-60 = tested on: HL-60
# MDA-N = tested on: MDA-N
# T47D = tested on: T47D
# Hs-578T = tested on: Hs-578T
smiles,measurement,setting,value
O=C(OCC1CC(C2(O)CCCCC2)C(=O)O1)c1ccccc1 (centres undefined),GI50,786-0,> 100 µM (inactive)
same,GI50,A498,> 100 µM (inactive)
same,GI50,A549,> 100 µM (inactive)
same,GI50,ACHN,> 100 µM (inactive)
same,GI50,BT-549,> 100 µM (inactive)
same,GI50,CAKI-1,> 100 µM (inactive)
same,GI50,CCRF-CEM,> 100 µM (inactive)
same,GI50,COLO 205,> 100 µM (inactive)
same,GI50,DU-145,> 100 µM (inactive)
same,GI50,EKVX,> 100 µM (inactive)
same,GI50,HCC 2998,> 100 µM (inactive)
same,GI50,HCT-116,> 100 µM (inactive)
same,GI50,HCT-15,> 100 µM
same,GI50,HOP-62,> 100 µM (inactive)
same,GI50,HOP-92,5.5 µM (inactive)
same,GI50,HT-29,> 100 µM (inactive)
same,GI50,IGROV-1,> 100 µM (inactive)
same,GI50,K562,> 100 µM (inactive)
same,GI50,KM12,> 100 µM (inactive)
same,GI50,LOX IMVI,> 100 µM (inactive)
same,GI50,M14,> 100 µM (inactive)
same,GI50,MCF7,> 100 µM (inactive)
same,GI50,MDA-MB-231,> 100 µM (inactive)
same,GI50,MDA-MB-435,> 100 µM (inactive)
same,GI50,MOLT-4,> 100 µM (inactive)
same,GI50,Malme-3M,> 100 µM (inactive)
same,GI50,NCI-H226,> 100 µM (inactive)
same,GI50,NCI-H23,> 100 µM (inactive)
same,GI50,NCI-H460,71.8 µM (inactive)
same,GI50,NCI-H522,> 100 µM (inactive)
same,GI50,NCI/ADR-RES,> 100 µM (inactive)
same,GI50,OVCAR-3,> 100 µM (inactive)
same,GI50,OVCAR-4,> 100 µM (inactive)
same,GI50,OVCAR-5,> 100 µM (inactive)
same,GI50,OVCAR-8,> 100 µM (inactive)
same,GI50,PC-3,> 100 µM (inactive)
same,GI50,RPMI-8226,> 100 µM (inactive)
same,GI50,RXF 393,> 100 µM (inactive)
same,GI50,SF-268,> 100 µM (inactive)
same,GI50,SF-295,> 100 µM (inactive)
same,GI50,SF-539,> 100 µM (inactive)
same,GI50,SK-MEL-28,> 100 µM (inactive)
same,GI50,SK-MEL-2,> 100 µM (inactive)
same,GI50,SK-MEL-5,> 100 µM (inactive)
same,GI50,SK-OV-3,> 100 µM (inactive)
same,GI50,SN12C,> 100 µM (inactive)
same,GI50,SNB-19,> 100 µM (inactive)
same,GI50,SNB-75,> 100 µM (inactive)
same,GI50,SR,> 100 µM (inactive)
same,GI50,SW-620,> 100 µM (inactive)
same,GI50,TK-10,> 100 µM (inactive)
same,GI50,U-251,> 100 µM (inactive)
same,GI50,UACC-257,> 100 µM (inactive)
same,GI50,UACC-62,> 100 µM (inactive)
same,GI50,UO-31,55.8 µM (inactive)
CCOP(=O)(OCC)/C(=C\n1c(=S)[nH]c2cc(C)ccc21)C(=O)OC,GI50,786-0,> 100 µM (inactive)
same,GI50,A498,> 100 µM (inactive)
same,GI50,A549,> 100 µM (inactive)
same,GI50,ACHN,> 100 µM (inactive)
same,GI50,BT-549,> 100 µM (inactive)
same,GI50,CAKI-1,> 100 µM (inactive)
same,GI50,COLO 205,> 100 µM (inactive)
same,GI50,DU-145,> 100 µM (inactive)
same,GI50,EKVX,45.8 µM (inactive)
same,GI50,HCC 2998,> 100 µM (inactive)
same,GI50,HCT-116,> 100 µM (inactive)
same,GI50,HCT-15,> 100 µM
same,GI50,HL-60,42.6 µM (inactive)
same,GI50,HOP-62,> 100 µM (inactive)
same,GI50,HOP-92,> 100 µM (inactive)
same,GI50,HT-29,> 100 µM (inactive)
same,GI50,IGROV-1,> 100 µM (inactive)
same,GI50,KM12,> 100 µM (inactive)
same,GI50,LOX IMVI,> 100 µM (inactive)
same,GI50,M14,> 100 µM (inactive)
same,GI50,MCF7,> 100 µM (inactive)
same,GI50,MDA-MB-231,> 100 µM (inactive)
same,GI50,MDA-MB-435,> 100 µM (inactive)
same,GI50,MDA-N,> 100 µM (inactive)
same,GI50,MOLT-4,> 100 µM (inactive)
same,GI50,NCI-H226,> 100 µM (inactive)
same,GI50,NCI-H23,> 100 µM (inactive)
same,GI50,NCI-H460,> 100 µM (inactive)
same,GI50,NCI/ADR-RES,> 100 µM (inactive)
same,GI50,OVCAR-3,> 100 µM (inactive)
same,GI50,OVCAR-4,> 100 µM (inactive)
same,GI50,OVCAR-5,> 100 µM (inactive)
same,GI50,OVCAR-8,> 100 µM (inactive)
same,GI50,RXF 393,> 100 µM (inactive)
same,GI50,SF-268,> 100 µM (inactive)
same,GI50,SF-295,> 100 µM (inactive)
same,GI50,SF-539,> 100 µM (inactive)
same,GI50,SK-MEL-28,> 100 µM (inactive)
same,GI50,SK-MEL-2,> 100 µM (inactive)
same,GI50,SK-MEL-5,> 100 µM (inactive)
same,GI50,SK-OV-3,> 100 µM (inactive)
same,GI50,SN12C,> 100 µM (inactive)
same,GI50,SNB-19,> 100 µM (inactive)
same,GI50,SNB-75,> 100 µM (inactive)
same,GI50,SW-620,> 100 µM (inactive)
same,GI50,T47D,> 100 µM (inactive)
same,GI50,TK-10,> 100 µM (inactive)
same,GI50,U-251,> 100 µM (inactive)
same,GI50,UACC-257,> 100 µM (inactive)
same,GI50,UACC-62,> 100 µM (inactive)
same,GI50,UO-31,> 100 µM (inactive)
Cc1ccc(C(=O)CC(O)(C(F)(F)F)C(F)(F)F)cc1[N+](=O)[O-],GI50,786-0,12.1 µM (inactive)
same,GI50,A498,21.3 µM (inactive)
same,GI50,A549,11.1 µM (inactive)
same,GI50,ACHN,15.5 µM (inactive)
same,GI50,CAKI-1,2.36 µM (inactive)
same,GI50,CCRF-CEM,4.63 µM (inactive)
same,GI50,COLO 205,16.8 µM (inactive)
same,GI50,DU-145,6.22 µM (inactive)
same,GI50,EKVX,17.9 µM (inactive)
same,GI50,HCC 2998,6.9 µM (inactive)
same,GI50,HCT-116,5.3 µM (inactive)
same,GI50,HCT-15,3.92 µM
same,GI50,HL-60,2.12 µM (inactive)
same,GI50,HOP-62,15.2 µM (inactive)
same,GI50,HOP-92,9.4 µM (inactive)
same,GI50,HT-29,1.87 µM (inactive)
same,GI50,Hs-578T,9.46 µM (inactive)
same,GI50,IGROV-1,5.05 µM (inactive)
same,GI50,K562,2.79 µM (inactive)
same,GI50,KM12,2.19 µM (inactive)
same,GI50,LOX IMVI,2.07 µM (inactive)
same,GI50,M14,6.59 µM (inactive)
same,GI50,MCF7,3.14 µM (inactive)
same,GI50,MDA-MB-231,7.55 µM (inactive)
same,GI50,MDA-MB-435,8.41 µM (inactive)
same,GI50,MDA-N,10.2 µM (inactive)
same,GI50,MOLT-4,16.7 µM (inactive)
same,GI50,Malme-3M,16.3 µM (inactive)
same,GI50,NCI-H226,20.2 µM (inactive)
same,GI50,NCI-H23,9.29 µM (inactive)
same,GI50,NCI-H460,5.78 µM (inactive)
same,GI50,NCI-H522,0.331 µM (active)
same,GI50,NCI/ADR-RES,16.3 µM (inactive)
same,GI50,OVCAR-3,2.2 µM (inactive)
same,GI50,OVCAR-4,15.8 µM (inactive)
same,GI50,OVCAR-5,18 µM (inactive)
same,GI50,OVCAR-8,10.2 µM (inactive)
same,GI50,PC-3,11.3 µM (inactive)
same,GI50,RPMI-8226,12.6 µM (inactive)
same,GI50,RXF 393,13.8 µM (inactive)
same,GI50,SF-268,9.42 µM (inactive)
same,GI50,SF-295,7 µM (inactive)
same,GI50,SF-539,17 µM (inactive)
same,GI50,SK-MEL-28,8.15 µM (inactive)
same,GI50,SK-MEL-2,13.7 µM (inactive)
same,GI50,SK-MEL-5,16.4 µM (inactive)
same,GI50,SK-OV-3,18.1 µM (inactive)
same,GI50,SN12C,10 µM (inactive)
same,GI50,SNB-19,9.06 µM (inactive)
same,GI50,SNB-75,18.3 µM (inactive)
same,GI50,SR,5.73 µM (inactive)
same,GI50,SW-620,16.8 µM (inactive)
same,GI50,T47D,13.5 µM (inactive)
same,GI50,TK-10,17.6 µM (inactive)
same,GI50,U-251,14.2 µM (inactive)
same,GI50,UACC-257,3.21 µM (inactive)
same,GI50,UACC-62,8.55 µM (inactive)
same,GI50,UO-31,5.81 µM (inactive)

# — ChEMBL document CHEMBL1201862, “PubChem BioAssay data set” (2004)
